# Patent US20250066292A1 (The Regents of the University of California, priority 2021, published 2025)
# Key:
# [1] = tested on: CDAHFD induced mouse models of NASH; assay: Murine CDAHFD NASH Study 2 comparing prodrug analogs BL0940 and BL0948; type: in vivo, mouse (C57BL/6 male); conditions: lower dose of BL0940, once daily gavage
# Text: Mice had at least received 8 weeks of CDAHDF diet before starting the study and continued to receive this diet during the next phase of the study. There were 8 mice per group (C57BL/6 male).
# • HD BL0940 (High dose) once daily by gavage therapy for 4 • LD BL0940 (low dose) once daily by gavage therapy for 4 • BL0948 once daily by gavage therapy for 4 weeks
# The MW of BL0940 is higher than BL0948 and so a higher dose was given. That is, HD BL0940 and BL0948 had capability of releasing same number of D2-cysteamine molecules.
# [2] = Prodrug stability and conversion in the medium and within the cell; type: in vitro ADME
# Text: This prodrug analog, BL0940, is very stable both in the medium and within the cell.
# cystinotic fibroblasts [3] = assay: Intracellular D2-cysteamine and prodrug levels following continual drug exposure; type: cell-based, human; conditions: for intracellular D2-cysteamine levels: 100 uM in media, continual exposure
# Protocol: (§1) Cystine Depletion Study. Dermal cystinotic fibroblasts were cultured in medium containing BL0948, BL0940 or D4-Cystamine at the same 100 uM concentration:
# Intracellular D2-cysteamine levels are measured following continual drug exposure (in media) to cystinotic fibroblasts (FIG. 7).
# [4] = tested on: Dermal cystinotic fibroblasts; assay: Cystine Depletion Study with BL0948, BL0940 or D4-Cystamine; type: cell-based, human; conditions: 100 uM in medium, continual exposure
# Protocol: as §1
# Intracellular cystine depletion over time. […] This likely represents a rapid exposure to D2-cysteamine after intracellular uptake. D4-cystamine will most likely reduce after crossing the cell membrane (peak level seen at 45 mins). BL0948 most likely has reduced to D2-cysteamine and the rearranged isomer in the medium before crossing the cell membrane. It is possible that after extracellular reduction that the ratio of D2-Cysteamine to rearranged analog is 10-20:1.
# cystinotic fibroblasts [5] = assay: Glutathione and oxidized glutathione measurement during constant exposure; type: cell-based, human; conditions: 100 uM; for oxidized glutathione (GSSG) / ratio of GSH/GSSG: versus 0-minute controls
# Protocol: (§2) In vitro experiments with prodrugs in cystinotic fibroblasts. Fibroblasts from a de-identified cystinotic patient were split 3× from 2 plates into 12 plates. An experimental compound, BL-0856, was studied using the following protocols. Several timepoints of cystamine was also performed for comparison. The constant incubation time series for the new compound was: 0, 15 min, 30 min, 1 h, 3 h, and 5 h. The cystamine timepoints were 0, 30 min, 1 h, and 5 h. There was also a washout experiment done for 2 timepoints of the experimental compound, where after 3 hours of constant incubation, the media was exchanged with no compound, and incubated for either 1 h or 3 h. Harvesting of cells on the plate went as follows 2× washes with PBS that included 5 mM N-ethylmaleimide for trapping free thiol groups, and then scraping the plates with an acidified organic solvent extraction solution containing d4-NEM-cysteamine, d4-cystine, d8-cystamine, ^13C^15N NEM-glutathione, and ^13C, ^15N GSSG as internal standards. All samples were run on an API 4500 triple quadrupole LC-MS/MS, with selective reaction monitoring (SRM/MRM) for the following compounds of interest: cystine, cysteine, cystamine, reduced glutathione, oxidized glutathione (GSSG). […] All data fit well to single exponential curves (either decay or association), except where mentioned.
# Glutathione and oxidized glutathione measurement during constant cystamine or BL-0856 exposure: Fibroblast cultures are exposed to 100 uM cystamine or 100 uM BL-0856 for the following timepoints: 0 min, […], 30 min, 1 h, 3 h, and 5 h. Following incubation, cells are washed 2× in PBS containing N-ethylmaleimide. After removing the wash, the cells are harvested on ice using 80% acetonitrile/1% formic acid, containing stable isotope internal standard for glutathione and oxidized glutathione.
# cystinotic fibroblasts [6] = assay: Cystine measurement after washout; type: cell-based, human; conditions: 100 uM for 3 h, then washout in regular media 0 min, 1 h
# Protocol: as §2, with “mentioned. […]” for “mentioned.”
# cystinotic fibroblasts [7] = assay: Cysteamine and cystamine (and prodrug) measurement during constant exposure; type: cell-based, human; conditions: 100 uM; for Cysteamine levels (intracellular) / cystamine levels (intracellular): constant exposure 0 min to 5 h
# Protocol: as §2
# Following incubation, cells are washed 2× in PBS containing N-ethylmaleimide.
# [8] = Stability of BL-0856 resuspended in water (LC-MS); type: physicochemical; conditions: 25 mM in water, 1-week post-resuspension
# Protocol: Drug concentrations: BL-0856 powder was resuspended in water at a concentration of 25 mM. 40 μL of this solution was added to 10 mL of media for a final concentration of 100 uM. […] Based upon the LC-MS profile, BL-0856 was likely >80-90% pure (unhydrolyzed) when used in the experiments. A method for the reduced intermediate form was also made, but none of it was found present in the neat standard.
# cystinotic fibroblasts [9] = assay: Cystine measurement during constant cystamine or BL-0856 exposure; type: cell-based, human; conditions: 100 uM, constant exposure 0 min to 5 h, compared with cystamine
# Protocol: Drug concentrations: BL-0856 powder was resuspended in water at a concentration of 25 mM. 40 μL of this solution was added to 10 mL of media for a final concentration of 100 uM.
# Cystamine was made from high pH oxidation of cysteamine-bitartrate powder (w/Ammonium hydroxide), at a concentration of 25 mM. […] Since this was used for only several timepoints of a control, this was deemed sufficient for this purpose. The drug was also administered to cells at a final concentration of 100 uM.
# In vitro experiments with prodrugs in cystinotic fibroblasts. Fibroblasts from a de-identified cystinotic patient were split 3× from 2 plates into 12 plates. An experimental compound, BL-0856, was studied using the following protocols. Several timepoints of cystamine was also performed for comparison. The constant incubation time series for the new compound was: 0, 15 min, 30 min, 1 h, 3 h, and 5 h. The cystamine timepoints were 0, 30 min, 1 h, and 5 h. There was also a washout experiment done for 2 timepoints of the experimental compound, where after 3 hours of constant incubation, the media was exchanged with no compound, and incubated for either 1 h or 3 h. […]
# cystinotic fibroblasts [10] = assay: Cysteine measurement during constant exposure; type: cell-based, human; conditions: 100 uM, compared with cystamine
# Protocol: as §2, with “mentioned. […]” for “mentioned.”
# [11] = tested on: CDAHFD induced mouse models of NASH; assay: Study 1 NASH/Mouse (CDAHFD diet); type: in vivo, mouse (C57BL/6 male); conditions: 200 mg/kg once daily gavage for 2 weeks; for intrahepatic fibrosis: compared with control group
# Protocol: Study 1—NASH/Mouse. Mice had at least received 8 weeks of CDAHFD diet before starting the study and continued to receive this diet during the next phase of the study. There were 4 mice per group (C57BL/6 male): • Control group (c1), water administered once daily by gavage for 2 weeks; • 200 mg/kg of Drug 0 once daily gavage therapy for 2 weeks; • 200 mg/kg of Drug 2 once daily gavage therapy for 2 weeks; • 200 mg/kg of Drug 4 once daily gavage therapy for 2 weeks. FIG. 10A depicts the study outline.
# [12] = tested on: circulating white blood cells; conditions: taken regularly, measured in circulating white blood cells; cited from earlier work
# [13] = 400-1000 IU/day for 4-10 months, cited from earlier work
compound,measurement,setting,value
[2H]C([2H])(CN)SSC[C@H](NC(C)=O)C(=O)OCC [BL0940],"effect on markers of inflammation, remodeling and fibrosis",[1],did not have the same degree of effect
same,stability in the medium and within the cell,[2],very stable
same,intracellular D2-cysteamine levels,cystinotic fibroblasts [3],increase over time
same,intracellular levels of BL0940,"cystinotic fibroblasts [3]; continued exposure, e.g. at 240 minute time points",increase over time
same,intracellular cystine depletion (effect on cystine levels),[4],less of an effect compared to D4-cystamine
[2H]C([2H])(CN)SC(C)=O [BL0948],conversion of prodrug to D2-cysteamine,[2]; portion rearranges to the N-acetylated isomer,does not convert entirely to D2-cysteamine
same,intracellular D2-cysteamine levels,cystinotic fibroblasts [3],relatively high level
same,intracellular cystine depletion (effect on cystine levels),[4],rapid and more profound
same,intracellular cystine depletion (effect on cystine levels),[4]; listed as BL-948,pronounced effect
"Cl.Cl.Cl.NCCSSC[C@H](N)C(=O)SCCN [BL-0856, (S)-3-((2-ammonioethyl)disulfaneyl)-1-((2-ammonioethyl)thio)-1-oxopropan-2-aminium chloride]",glutathione,cystinotic fibroblasts [5]; between the 2 drug forms,no obvious differences
same,oxidized glutathione (GSSG),cystinotic fibroblasts [5],goes up at the first timepoint
same,ratio of GSH/GSSG,cystinotic fibroblasts [5],lower throughout all timepoints
same,cystine reaccumulation rate,cystinotic fibroblasts [6],comparable to cystamine
same,BL-0856 and the thiol reduced intermediate in cells,"cystinotic fibroblasts [7]; any of the timepoints, LC-MS/MS",not found at high enough levels to be identified
same,Cysteamine levels (intracellular),cystinotic fibroblasts [7],nearly identical
same,cystamine levels (intracellular),cystinotic fibroblasts [7],some cystamine still exists
same,content of resuspended drug (stability in water),[8],contained cysteamine and cystamine
same,cystine depletion rates,cystinotic fibroblasts [9],nearly identical
same,cysteine (intracellular),cystinotic fibroblasts [10],higher
[2H]C(CN)SSC([2H])CN (stereo not shown) [D2-cystamine],intrahepatic fibrosis,[11],significant reduction
same,markers of fibrosis (aSMA),[11]; versus control groups,significant reduction
same,markers of inflammation (F4/80),[11]; versus control groups,significant reduction
same,markers of inflammation (FIG. 12A-B),[11]; versus control groups,significant reduction
[2H]C([2H])(CN)SSC([2H])([2H])CN [D4-cystamine],intrahepatic fibrosis,[11],significant reduction
"NCCSSCCN [cystamine, reference compound]",oxidized glutathione (GSSG),cystinotic fibroblasts [5],goes up at the first timepoint
same,ratio of GSH/GSSG,cystinotic fibroblasts [5],lower throughout all timepoints
same,Cysteamine levels (intracellular),cystinotic fibroblasts [7],nearly identical
same,cystamine levels (intracellular),cystinotic fibroblasts [7],higher
NCCS [cysteamine],depletion of intracellular cystine,[12],up to 90%
vitamin E,mean AST levels after treatment,[13]; decreased from 104±61 IU/L,33±11 IU/L
same,mean ALT levels after treatment,[13]; decreased from 175±106 IU/L,40±26 IU/L
